In a melting point compilation (Tetko et al.; mined from patent text by program, amines drawn as free bases though some values may be those of a salt) one finds melting point data, which are given here for 91 molecules.

The structures appear in SMILES notation.

`OCC1Cc2c(cc(Cl)c3c(-c4ccccc4F)noc23)O1` (stereo unspecified) registered a melting point of 110 to 111 °C.
Regarding `COC(=O)CC1CC(c2ccc(C#N)cn2)=NO1` (stereo unspecified), the melting point fell in the range of 97 to 98 °C.
As for `OCCCCCCCCCCCCCCCCCCCCCCC(F)(F)C(F)(F)C(F)(F)C(F)(F)F`, the figure is 69 to 71 °C.
As for `C1COCCNCCSCCN1`, the figure is 74 to 76 °C.
For the molecule `O=C(c1ccccc1Cl)c1ccc(O)c(Cl)c1Cl`, the melting point fell in the range of 74 to 77 °C.
With `Cc1ccc([N+](=O)[O-])c2c1CC(C)O2` (stereo unspecified) the figure was 69 to 71 °C; with `O=S(=O)(Oc1ccc(F)cc1)c1ccc(Oc2ccc(F)cc2)cc1`, 78 to 83 °C.
As to `COc1cccc(CNC(=O)c2ncc3ccccc3n2)c1`, the melting point was in the range of 91 to 93 °C.
As for `N#Cc1cccc(-c2ccc3cc[nH]c(=O)c3c2)c1`, the figure is more than 300 °C; as for `Cc1ccccc1-c1ccc(Cl)cc1C(=O)O`, 135 to 137 °C.
`CCc1cc2ccccn2c1`: the melting point is 42 to 44 °C.
With `Cn1nnc(-c2ccc3c(c2)c(C2=CCN(CCN4CCNC4=O)CC2)cn3-c2ccc(F)cc2)n1` the figure was 201 to 203 °C; with `Cc1c(C)c2c(c(C)c1N)CC(C)(CN1CCC(C(=O)NCC(c3ccccc3)c3ccccc3)CC1)O2` (stereo unspecified), 168 to 170 °C; with `COc1ccc(-c2nn(CC=Cc3ccc(Cl)cc3)c(=O)cc2-c2ccc(OC)c(F)c2)cc1`, 109 to 111 °C.
As for `COc1ccc(-c2c(SCc3ccncc3)oc3cc(OC)ccc3c2=O)cc1`, the figure is 140 to 141 °C; as for `C(=Cc1ncon1)c1ccccc1`, 82 °C.
With `COc1nc(NC(=O)NS(=O)(=O)c2ccccc2OC(F)F)nc(C2CC2)n1` the figure was 121 to 124 °C; with `O=C(NNS(=O)(=O)c1cccc(F)c1)c1ccc2oc3ccccc3c2c1`, 223 °C.
Take `CCCC(CC(CC)SC)CC1OC(n2cnc3c(N)ncnc32)C(O)C1O` (stereo unspecified): the melting point was 78 to 80 °C.
As for `COc1ccc(-c2cc(=Nc3c(C)cc(C)cc3C)n(C)c(=O)n2C)cc1S(C)=O` (stereo unspecified), the figure is 125 to 135 °C; as for `CC(=O)Nc1cccc(Oc2cc(-c3ccc(C(F)(F)F)cc3)ncn2)c1`, 202 to 205 °C.
As to `CON(C(=O)c1ccc(C(=O)C(C)(C)C)cc1)C(=O)c1ccc(C(=O)C(C)(C)C)cc1`, the melting point was 103 to 105 °C.
As for `NC1=C([C@H]2CC[C@H](c3ccc(Cl)cc3)CC2)C(=O)c2ccccc2C1=O`, the figure is 210 to 215 °C.
With `O=C1C(=O)c2ccccc2C2=C1SCC(CNCCc1ccccc1)O2` (stereo unspecified) the figure was 80 to 82 °C; with `O=C(O)/C=C/c1ccc(-c2nc3c([nH]2)c(=O)n(CC2CCCCC2)c(=O)n3CC2CCCCC2)s1`, more than 300 °C; with `Cc1cc2c(cc1-c1c[nH]c(C=CC(=O)O)c1)C(C)(C)CCC2(C)C`, 245 to 246 °C.
As for `NS(=O)(=O)N1CCC(C2c3ncc(Br)cc3CCc3cc(Cl)cc(Cl)c32)CC1` (single isomer, unassigned; (+)), the figure is 133 to 134 °C; as for `C[Si](C)(C)c1cc(-c2ccc(F)cc2)c(-c2ccc(F)cc2)o1`, 82 to 83 °C; as for `O=C(c1cccc(N2CC(=O)N(S(=O)(=O)c3ccc(Cl)cc3)C2=O)c1)N1CCOCC1`, 248 to 253 °C.
Consider `O=C(O)c1ccc(=O)n(CCNC(=O)c2ccncc2)c1`, for which the melting point is more than 300 °C.
On to `CCCCn1c(=O)n(C)c(=O)c2[nH]ncc21`, for which the melting point lay within 160 to 162 °C.
As to `COC(=O)c1nnc(NC(=O)CCCOc2cccc(CN3CCCCC3)c2)n1C`, the melting point lay within 108 to 110 °C.
As for `OC(=S)CCc1ccc(F)cc1`, the figure is 68 to 69 °C; as for `ON=c1cc(-c2cc3cccn3cn2)oc2ccc(OCCc3cccc(C(F)(F)F)c3)cc12`, 217 to 218 °C; as for `CC(CO)Nc1nc(-c2ccc(Br)cc2)cs1` (stereo unspecified), 100 to 101 °C.
On to `COC(=O)CCCc1n[nH]c(=O)c2cc(OC)ccc12`, for which the melting point is 175 to 177 °C.
As for `CC(C)c1nc(CCOC2=CCCc3ccccc32)n(C)c1Sc1cc(Cl)cc(Cl)c1`, the figure is 99 to 102 °C.
With `CCc1cc(NC(=O)C(CSC(C)=O)Cc2ccccc2)cc(C(=O)O)c1` (stereo unspecified) the figure was 175 to 177 °C.
With `CCCC[C@H]1CC[C@H](C(=O)O)CC1` the figure was 37 to 39 °C.
In turn, `O=S1(=O)N[C@@H](c2ccccc2)c2ccccc21` yielded a melting point of 139 °C.
As for `Cc1ccccc1-c1nsc(S(=O)(=O)N=CN2CCOCC2)n1`, the figure is 151 to 153 °C.
With `COc1ccc(C(=NO)c2ccccc2F)c(O)c1C` the figure was 167 to 169 °C.
With `Cc1ccc(CNc2nc(OCC(F)(F)F)nc(Oc3cccc(C(F)(F)F)c3)n2)o1` the figure was 116 to 118 °C; with `CCOC(=O)c1cn(C)c2nc3cc(N4CCNC(c5ccc(N)cc5)C4)c(F)cc3cc2c1=O` (racemic), 180 to 182 °C; with `CC(=O)NCCCc1ccc(CN2CCN(c3ccccc3)CC2)cc1`, 117 to 118 °C.
`CN(C)S(=O)(=O)c1ccc(-c2ccccc2)cc1S(=O)(=O)Cl`: the melting point lay within 140 to 143 °C.
As for `CCOC(=O)c1ncn(-c2nc(C)cs2)c1S`, the figure is 193 to 195 °C.
In turn, `O=C1C(c2ccccc2)=C(c2ccccc2)C(=O)N1CCc1cccc(F)c1` came in with a melting point of 129 to 130 °C.
As for `C=Cc1cnc(NC(=O)C(C)C)nc1`, the figure is 110 to 112 °C.
As for `COc1ccc(Br)c2c1CC(=O)CO2`, the figure is 97 to 100 °C; as for `CC(=O)OCC(=O)C1C(C)CC2C3CC(Cl)C4=CC(=O)C=CC4(C)C3=CCC21C` (stereo unspecified), 181 °C.
As for `CS(=O)(=O)Nc1ccc(OCC2CCN(c3ccncc3)CC2)cc1`, the figure is 214 to 215 °C; as for `c1ccc2c(c1)C[C@H]1CSC(=Nc3cccc4ncccc34)N1C2`, 194 °C.
`CC(C)N(C(C)C)S(=O)(=O)N[C@@H](Cc1ccc(Nc2nccc3cnccc23)cc1)C(=O)O` registered a melting point of 168 °C.
As for `NC1=CC(=O)CC(c2ccccc2)C1` (stereo unspecified), the figure is 190 to 191 °C.
As for `Cc1cc(C(C)C(=O)O)ccc1C(=O)c1cccs1` (stereo unspecified), the figure is 100 °C; as for `Nc1cccc(-c2cc3ccccc3[nH]2)c1`, 166 °C.
As for `COCC(C)N(C(=O)N(CCCl)N=O)C1(O)C(O)C(CO)OC(OCC(C)C)C1O` (stereo unspecified), the figure is 66 to 68 °C; as for `Cc1cc([N+](=O)[O-])c(NCC(O)CO)c([N+](=O)[O-])c1` (stereo unspecified), 118 °C; as for `O=C(O)c1cc2ccnc(Cl)c2[nH]1`, 210 to 214 °C.
`COC(=O)c1cc2ccc(Sc3ccc(C)cc3)nc2s1`: the melting point fell in the range of 127 to 130 °C.
Consider `OC(CNC1=NCCN1)c1ccc(F)cc1` (stereo unspecified), for which the melting point came out at 153 °C.
With `O=C(O)COc1ccc2cc(-c3csc(Cc4c(Cl)cccc4Cl)n3)ccc2c1` the figure was 205 to 207 °C; with `O=C(NCCc1cccs1)c1ccc(-c2ccccc2)cc1`, 164 to 166 °C; with `CC(=O)OC1CCCC(n2cnc3cc(Cl)c(Cl)cc32)C1OC(C)=O` (stereo unspecified), 163 to 165 °C.
Turning to `CC(C)(C)c1nc2cc(N3CCN(S(C)(=O)=O)CC3)c(N)cc2s1`, the melting point fell in the range of 153 to 155 °C.
With `O=C(c1cc2cc(OCCNC[C@H](O)COc3ccccc3)ccc2o1)N1CCCC1` the figure was 117 to 118 °C; with `Cc1cc(C(=O)O)n(-c2ccc(C=Cc3ccccc3)c(C#N)c2)n1`, 226 °C; with `CC(C)(C)OC(=O)N1CCC(CC(=O)Nc2cccc(-c3ccnc4c(C(=O)c5cccs5)cnn34)c2)CC1`, 173 to 175 °C.
As for `CN1C(=O)C(C)(C)c2ccc(C(=O)Nc3ccccc3)cc21`, the figure is 184 to 186 °C; as for `CNC(=O)c1cc(-c2ccc(OC)cc2)n[nH]c1=O`, 246 to 247 °C.
With `O=c1c2c(Cl)cc(Cl)cc2n(Cc2ccccc2)c(=O)n1Cc1cccc(Br)c1`, the melting point lay within 121 to 128 °C.
As for `CCCCCN1C(=O)C(=O)c2c(OC)cccc21`, the figure is 80 to 82 °C.
`CCNC(=O)c1cc(N)c([N+](=O)[O-])cc1OC`: the melting point is 235 to 239 °C.
As for `OCCC1(c2ccc(Cl)c(Cl)c2)CCNC1` (stereo unspecified), the figure is 91 to 94 °C; as for `CC(=O)c1c(C(C)C)nn2c(C)cccc12`, 67.5 to 68 °C; as for `Cc1ccc(C#CC#Cc2ccc(C)cc2)cc1`, 182 to 183 °C.
As for `O=C(Nc1cccc(-c2ccccc2)c1)Nc1cccc2[nH]ccc12`, the figure is 213 to 215 °C.
With `O=C(NC1CCOc2cc(C(=O)Nc3ccncc3)ccc21)OCc1ccccc1` (stereo unspecified) the figure was 226 to 228 °C; with `CCc1nc2cc(C(F)(F)F)c(Cl)cc2n1-c1ccc(CCOC(=O)NS(=O)(=O)c2cn(C)c(C)n2)cc1`, 221 °C.
`COc1ccc(N2CCN(c3c(C)c(C)c4c(c3C)C(C(C)(C)C)C(C)(C)O4)CC2)cc1` (stereo unspecified) showed a melting point of 144 to 146 °C.
As for `CCNc1nc(C)c(C(=O)OCC)c(N2CCN(C)CC2)c1N`, the melting point was in the range of 73 to 75 °C.
As for `COP(=O)(CC(=C(c1ccc(F)cc1)c1ccc(F)cc1)n1cnnn1)OC`, the figure is 133 to 134 °C; as for `CS(=O)(=O)CCCC(=O)NNC(=O)N1Cc2ccccc2Oc2ccc(Cl)cc21`, 198 to 199 °C; as for `COC(=O)C(C)Nc1c(C)csc1C` (stereo unspecified), 33 to 34 °C.
Turning to `O=C1CCN(Cc2ccc([N+](=O)[O-])cc2)CC1C(c1ccc(F)cc1)c1ccc(F)cc1` (stereo unspecified), the melting point was in the range of 118 to 119 °C.
For the molecule `CCCc1nc2c(N)nc3cc(OCCc4ccc(F)cc4)ccc3c2s1`, the melting point lay within 145 to 148 °C.
As for `C[Si](C)(C)C#Cc1ccc(C2=CC(c3ccc(C#C[Si](C)(C)C)cc3)N(c3ccccc3)N2)cc1` (stereo unspecified), the figure is 108 to 110 °C.
As for `O=S(=O)(O)CCCN1CCCc2ccccc21`, the figure is 233 to 237 °C; as for `COc1ccc(-n2nc(N3CCN(C(N)=O)CC3)c3ccccc32)cc1`, 155 to 157 °C; as for `CCCCCC(O)CNCCCCCCNCC(O)CCCCC` (stereo unspecified), 131 to 134 °C.

The term melting point denotes the temperature of the solid-liquid transition.
